The record followed here is patent US10765654B2, “Methods and compounds for treating cancer” (University of Vermont and State Agricultural College, priority 2011, dated 2020).

Assay [1] relates to OG33 oligodendroglioma stem cells. The experiment in a line: Cell cycle profile by propidium iodide staining and flow cytometry. It is filed as cell-based, human. The conditions noted are these: 0.25% GTA in SCM for 24 hours; OG33. As for the experimental part:
(§1) Cell cycle profiles were visualized by propidium iodide (PI) staining as previously described (Perez-Martinez & Jaworski (2005) J Neurosci 25:4917-29). OG35, OG33 and mouse neural stem cells were grown in stem cell medium (SCM; DMEM/F12, B27, 20 ng/ml ea bFGF & EGF) while the oligodendrocyte progenitor cell line, Oli-neu (Jung et al. (1995) Eur J Neurosci 7:1245-65) was grown in Sato's medium (DMEM supplemented with 100 μg/ml apotransferrin, 5 μg/ml insulin, 60 nM triiodothyronine, 30 nM sodium selenite, 100 μM putrescine, 1% horse serum, and 25 μg/ml G418). […] after 0.25% (v/v) GTA treatment, cells were trypsinized, recovered by centrifugation, re-suspended (10^6 cells/ml) in a low-salt PI solution ([…] polyethylene glycol PEG 8000, […], 180 U/ml RNase A, 0.1% Triton X-100, and 4 mM sodium citrate), and incubated at 37° C. for 20 minutes. After addition of an equal volume of high-salt PI solution ([…] polyethylene glycol PEG 8000, […], 180 U/ml RNase A, 0.1% Triton X-100, and 400 mM NaCl) and incubation at 4° C. for 1 hour, cell cycle profiles were recorded by flow cytometry (BD LSR 11 Flow Cytometer, BD Biosciences; Franklin Lakes, N.J.).
(In general: A flow cytometer gives signals particle by particle.)

The subject of assay [2] is OG35 oligodendroglioma stem cells. The assay is described as above. It is filed as cell-based, human. The conditions noted are these: 0.25% GTA in SCM for 24 hours; OG35. As for the experimental part: as §1
Another assay deals with GBM12 astrocytoma GSCs. The experiment in a line: Orthotopic graft in athymic mice, survival. It is filed as in vivo. The conditions noted are these: GBM 12 engrafted mice; GTA alone 5.8 g/kg daily; p<0.0001. The method, then:
Cells (2,500 cells in 4 μl) were injected into the right striatum (1 mm anterior, 1.5 mm lateral to bregma, 3.5 mm deep) of adult athymic mice (8-week-old, 25-28 g). […]
For in vivo imaging, mice were injected i.p. with 150 mg/kg D-luciferin potassium salt 5 minutes prior to imaging under 1.5% inhaled isoflurane. Peak efflux was determined from an average of 15 bioluminescent acquisitions, with 1 min inter-acquisition intervals, using the auto-exposure setting. Total photon efflux was determined by drawing regions of interest over the emitted region and setting thresholds for each mouse to maximize the number of pixels encircled using Living Image acquisition and analysis software (Version 3.0.3.5, Caliper Life Sciences, Hopkinton, Mass.). […]
Tumor bioluminescence (rate of flux change over time) and tumor volume were compared using a Mann-Whitney test. Survival was analyzed using Kaplan-Meier curves [Kaplan, EL and P Meier. (1958) J Am Stat Assoc 53:457-481] and comparisons between groups were analyzed with a log-rank test [Peto, R and J Peto. […]

Turning to `CC(=O)OCC(COC(C)=O)OC(C)=O` [GTA, glyceryltriacetate], the Cell cycle arrest result in assay [1] and in assay [2] was “induced cell cycle arrest” each time. For the same compound, the “Survival relative to vehicle treated mice” value in the assay on GBM12 astrocytoma GSCs is reported as “increased survival relative to vehicle treated mice”.
